We go through one compound from article PMC12038849, “Identification and Characterization of a Leoligin-Inspired Synthetic Lignan as a TGR5 Agonist” (Journal of Natural Products, 2025).

The test addresses T1, G-protein coupled bile acid receptor 1 (GPBAR1 or TGR5) (Homo sapiens, UniProt Q8TDU6).
T1 construct: human TGR5-ORF (NM_170699), stably expressed in HEK EPAC cells
T1 sequence (Q8TDU6 1-330): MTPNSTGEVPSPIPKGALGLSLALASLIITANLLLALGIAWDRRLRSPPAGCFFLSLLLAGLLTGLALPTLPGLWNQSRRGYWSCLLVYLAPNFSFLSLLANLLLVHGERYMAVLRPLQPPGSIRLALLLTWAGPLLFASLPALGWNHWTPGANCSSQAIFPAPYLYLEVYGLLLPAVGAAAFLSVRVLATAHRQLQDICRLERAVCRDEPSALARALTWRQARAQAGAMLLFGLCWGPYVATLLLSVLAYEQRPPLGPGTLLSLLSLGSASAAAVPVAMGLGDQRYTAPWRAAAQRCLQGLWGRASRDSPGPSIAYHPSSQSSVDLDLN
Nature of the test: EPAC FRET cAMP accumulation assay in TGR5-expressing HEK cells; inactive in non-TGR5 cells. In kind it is cell-based. A general note: cAMP levels reflect the balance of adenylyl cyclase and phosphodiesterase activity.

Broadly, the EC50 is the concentration that produces a half-maximal response. Read a low EC50 as an effect from little substance. Consider `C/C=C(/C)C(=O)OCC[C@H]1[C@@H](Cc2ccc(OC)c(OC)c2)CO[C@@H]1c1ccc(OC)c(OC)c1` [compound 1, LT-188A], for which the midpoint of the response, the EC50, lay at 23 µM.
